Like-named read-outs stand apart in the source and are kept apart here.
Assays:
Format in all cases: biochemical
CSNK1A1 = CSNK1A1 (Homo sapiens (Human), UniProt P48729); assay: CSNK1A1 Assay 2 (ADP-Glo, 1 μM ATP); details: median, read-out: CSNK1A1 Assay 2 IC50 [mol/l] (median)
Outline: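 Enzyme (~0.0375 ng/μL) preincubated 15 min at 22° C with compound in HEPES pH 7.5 buffer, then reacted with 1 μM ATP and biotin-Ahx-KRRRAL-pS-VASLPGL peptide. ADP product measured by ADP-Glo luminescence after 1 h ATP depletion and 1 h detection at 22° C.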

CSNK1D = CSNK1D (Homo sapiens (Human), UniProt P48730); assay: CSNK1D Assay (ADP-Glo, 1 μM ATP); details: median, read-out: CSNK1D IC50 [mol/l] (median)
CSNK1D, sequence (P48730 whole entry): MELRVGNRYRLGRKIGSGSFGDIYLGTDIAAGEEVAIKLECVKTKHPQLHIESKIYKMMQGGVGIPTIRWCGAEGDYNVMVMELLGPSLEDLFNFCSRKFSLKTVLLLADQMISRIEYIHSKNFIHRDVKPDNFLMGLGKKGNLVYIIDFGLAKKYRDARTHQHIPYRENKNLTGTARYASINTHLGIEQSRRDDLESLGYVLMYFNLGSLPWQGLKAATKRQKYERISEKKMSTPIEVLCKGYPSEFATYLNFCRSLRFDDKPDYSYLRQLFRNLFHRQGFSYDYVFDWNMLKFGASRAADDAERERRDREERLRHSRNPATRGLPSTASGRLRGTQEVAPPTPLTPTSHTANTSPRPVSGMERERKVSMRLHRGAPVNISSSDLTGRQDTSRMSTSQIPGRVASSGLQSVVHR
Outline: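 Enzyme preincubated with compound 15 min at 22° C in 50 mM HEPES pH 7.5 buffer with 10 mM MgCl2, 1 mM DTT; kinase reaction run at 1 μM ATP with biotinylated peptide substrate. ADP formed was detected by ADP-Glo luminescence as the measure of activity.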

[1] = target: wild-type Epidermal Growth Factor Receptor (EGFR) (Homo sapiens (Human), UniProt P00533); assay: WT-EGFR Kinase Assay (TR-FRET, 2 mM ATP)
wild-type Epidermal Growth Factor Receptor (EGFR), sequence (P00533 669-1210): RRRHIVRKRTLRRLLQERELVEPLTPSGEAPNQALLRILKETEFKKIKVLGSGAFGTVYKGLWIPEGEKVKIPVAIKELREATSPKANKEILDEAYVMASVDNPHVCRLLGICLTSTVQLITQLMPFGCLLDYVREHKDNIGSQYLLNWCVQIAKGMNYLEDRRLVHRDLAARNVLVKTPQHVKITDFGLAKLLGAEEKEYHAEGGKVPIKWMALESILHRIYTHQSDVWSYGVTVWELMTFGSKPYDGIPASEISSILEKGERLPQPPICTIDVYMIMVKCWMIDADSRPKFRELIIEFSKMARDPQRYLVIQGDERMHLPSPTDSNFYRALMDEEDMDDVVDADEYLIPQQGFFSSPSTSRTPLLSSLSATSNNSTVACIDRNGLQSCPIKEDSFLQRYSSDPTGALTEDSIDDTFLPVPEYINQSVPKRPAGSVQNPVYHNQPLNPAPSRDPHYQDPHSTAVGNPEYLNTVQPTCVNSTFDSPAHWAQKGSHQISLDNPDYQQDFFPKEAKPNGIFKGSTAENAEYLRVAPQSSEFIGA
Outline: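 GST-tagged human EGFR (R669–A1210, Sf9-expressed) preincubated 15 min at 22° C with compound in pH 7.0 Hepes/MgCl2 buffer, then reacted at 2 mM ATP with a biotinylated peptide substrate. Phosphorylation detected by TR-FRET (streptavidin-XL665, Tb-cryptate anti-phosphotyrosine) as the 665/620 nm emission ratio.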

[2] = read-out: EGFR Wildtyp 2 mM ATP IC50 [mol/l] (median), median or individual measurements
[3] = EGFR Wildtyp 2 mM ATP IC50 [mol/l] (median), median or individual measurements

CSNK1A1, sequence (P48729 whole entry): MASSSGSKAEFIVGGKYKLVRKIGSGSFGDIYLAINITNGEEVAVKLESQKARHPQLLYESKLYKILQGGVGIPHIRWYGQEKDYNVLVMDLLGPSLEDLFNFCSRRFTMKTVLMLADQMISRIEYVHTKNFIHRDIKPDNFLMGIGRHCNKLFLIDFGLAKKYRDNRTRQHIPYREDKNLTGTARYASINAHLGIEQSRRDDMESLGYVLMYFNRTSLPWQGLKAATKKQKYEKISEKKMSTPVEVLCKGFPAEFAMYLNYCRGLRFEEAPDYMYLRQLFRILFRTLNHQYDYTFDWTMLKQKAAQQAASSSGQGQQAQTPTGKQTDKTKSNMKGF

| Compound | IC50 (CSNK1A1) | IC50 (CSNK1D) | IC50 [1, 2] | IC50 [1, 3] |
| --- | --- | --- | --- | --- |
| Cn1cc(Cl)c2[nH]c(-c3ccnc(NC(=O)Cc4ccc(F)cc4)c3)c(-c3ccccc3)c2c1=O [Example 79, N-[4-(7-chloro-5-methyl-4-oxo-3-phenyl-4,5-dihydro-1H-pyrrolo[3,2-c]pyridin-2-yl)pyridin-2-yl]-2-(4-fluorophenyl)acetamide] | 5.1 nM | 4.8 nM | > 20000 nM | – |
| CC(C(=O)Nc1cc(-c2[nH]c3ccn(C)c(=O)c3c2-c2ccc(F)cc2)ccn1)c1ccc(F)cc1 (single isomer, unassigned; (+)) [Example 102, (+)-2-(4-fluorophenyl)-N-{4-[3-(4-fluorophenyl)-5-methyl-4-oxo-4,5-dihydro-1H-pyrrolo[3,2-c]pyridin-2-yl]pyridin-2-yl}propanamide] | 1 nM | 2 nM | – | 875 nM |
| CC(C(=O)Nc1cc(-c2[nH]c3ccn(C)c(=O)c3c2-c2ccccc2Cl)ccn1)c1ccc(F)cc1 (racemic) [Example 112, N-{4-[3-(2-chlorophenyl)-5-methyl-4-oxo-4,5-dihydro-1H-pyrrolo[3,2-c]pyridin-2-yl]pyridin-2-yl}-2-(4-fluorophenyl)propanamide] | 23 nM | 14 nM | – | > 20000 nM |
| CN1CC(C)(C)c2[nH]c(-c3ccnc(NC(=O)C(CC(F)F)c4ccc(F)cc4)c3)c(-c3ccccc3)c2C1=O (single isomer, unassigned; (+)) [Example 152, (+)-4,4-difluoro-2-(4-fluorophenyl)-N-[4-(5,7,7-trimethyl-4-oxo-3-phenyl-4,5,6,7-tetrahydro-1H-pyrrolo[3,2-c]pyridin-2-yl)pyridin-2-yl]butanamide] | 4.3 nM | 4.5 nM | > 20000 nM | – |
| CN1CCc2[nH]c(-c3ccnc(NC(=O)Cc4ccc(F)cc4)c3)c(-c3ccccc3)c2C1=O [Example 1, 2-(4-fluorophenyl)-N-[4-(5-methyl-4-oxo-3-phenyl-4,5,6,7-tetrahydro-1H-pyrrolo[3,2-c]pyridin-2-yl)pyridin-2-yl]acetamide] | 1.3 nM | 3.7 nM | > 20000 nM | – |
| CN1CCc2[nH]c(-c3ccnc(NC(=O)Cc4ccc(C(=O)N5CCNCC5)cc4)c3)c(-c3ccc(F)cc3)c2C1=O [Example 144, N-{4-[3-(4-fluorophenyl)-5-methyl-4-oxo-4,5,6,7-tetrahydro-1H-pyrrolo[3,2-c]pyridin-2-yl]pyridin-2-yl}-2-[4-(piperazine-1-carbonyl)phenyl]acetamide] | 2 nM | 3 nM | 3620 nM | – |
| CN1CCc2[nH]c(-c3ccnc(NC(=O)C(CC(F)F)c4ccc(F)cc4)c3)c(-c3ccc(F)cc3F)c2C1=O (racemic) [Example 66, N-{4-[3-(2,4-difluorophenyl)-5-methyl-4-oxo-4,5,6,7-tetrahydro-1H-pyrrolo[3,2-c]pyridin-2-yl]pyridin-2-yl}-4,4-difluoro-2-(4-fluorophenyl)butanamide] | 4.4 nM | 3.2 nM | – | > 20000 nM |
| CC(C(=O)Nc1cc(-c2[nH]c3ccn(C)c(=O)c3c2-c2ccccc2O)ccn1)c1ccc(F)cc1 (racemic) [Example 124, 2-(4-fluorophenyl)-N-{4-[3-(2-hydroxyphenyl)-5-methyl-4-oxo-4,5-dihydro-1H-pyrrolo[3,2-c]pyridin-2-yl]pyridin-2-yl}propanamide] | 5.6 nM | 11 nM | – | > 20000 nM |
| CC(C(=O)Nc1cc(-c2[nH]c3ccn(C)c(=O)c3c2-c2cc(F)ccc2C#N)ccn1)c1ccc(F)cc1 (racemic) [Example 127, N-{4-[3-(2-cyano-5-fluorophenyl)-5-methyl-4-oxo-4,5-dihydro-1H-pyrrolo[3,2-c]pyridin-2-yl]pyridin-2-yl}-2-(4-fluorophenyl)propanamide] | 33 nM | 33 nM | – | > 20000 nM |
| Cn1cc(CC2CC2)c2[nH]c(-c3ccnc(NC(=O)C(CC(F)F)c4ccc(F)cc4)c3)c(-c3ccc(F)cc3)c2c1=O (racemic) [Example 65, N-{4-[7-(cyclopropylmethyl)-3-(4-fluorophenyl)-5-methyl-4-oxo-4,5-dihydro-1H-pyrrolo[3,2-c]pyridin-2-yl]pyridin-2-yl}-4,4-difluoro-2-(4-fluorophenyl)butanamide] | 11 nM | 6.6 nM | – | > 20000 nM |
| CC(C(=O)Nc1cc(-c2[nH]c3ccn(C)c(=O)c3c2-c2ccoc2)ccn1)c1ccc(F)cc1 (racemic) [Example 115, 2-(4-fluorophenyl)-N-{4-[3-(3-furyl)-5-methyl-4-oxo-4,5-dihydro-1H-pyrrolo[3,2-c]pyridin-2-yl]pyridin-2-yl}propanamide] | 2.2 nM | 5.6 nM | – | > 20000 nM |
| Cc1cccc(-c2c(-c3ccnc(NC(=O)C(C)c4ccc(F)cc4)c3)[nH]c3c2C(=O)NC(C)(C)C3)c1 (racemic) [Example 88, N-{4-[6,6-dimethyl-3-(3-methylphenyl)-4-oxo-4,5,6,7-tetrahydro-1H-pyrrolo[3,2-c]pyridin-2-yl]pyridin-2-yl}-2-(4-fluorophenyl)propanamide] | 8.6 nM | 11 nM | – | > 20000 nM |
| CC(C(=O)Nc1cc(-c2[nH]c3ccn(C)c(=O)c3c2-c2ccc(F)cc2)ccn1)c1ccc(F)cc1 (single isomer, unassigned; (-)) [Example 101, (−)-2-(4-fluorophenyl)-N-{4-[3-(4-fluorophenyl)-5-methyl-4-oxo-4,5-dihydro-1H-pyrrolo[3,2-c]pyridin-2-yl]pyridin-2-yl}propanamide] | 12 nM | 5.6 nM | – | 32.4 nM |
| CC(C(=O)Nc1cc(-c2[nH]c3ccn(C)c(=O)c3c2-c2ccc(O)cc2)ccn1)c1ccc(F)cc1 (racemic) [Example 119, 2-(4-fluorophenyl)-N-{4-[3-(4-hydroxyphenyl)-5-methyl-4-oxo-4,5-dihydro-1H-pyrrolo[3,2-c]pyridin-2-yl]pyridin-2-yl}propanamide] | 15 nM | 11 nM | – | > 20000 nM |
| CC(C(=O)Nc1cc(-c2[nH]c3ccn(C)c(=O)c3c2-c2ccc(F)cc2)ccn1)c1ccc(F)cc1 (racemic) [Example 100, 2-(4-fluorophenyl)-N-{4-[3-(4-fluorophenyl)-5-methyl-4-oxo-4,5-dihydro-1H-pyrrolo[3,2-c]pyridin-2-yl]pyridin-2-yl}propanamide] | 5.9 nM | 8.6 nM | – | > 20000 nM |
| CC(C(=O)Nc1cc(-c2[nH]c3c(CC4CC4)cn(C)c(=O)c3c2-c2ccc(F)cc2)ccn1)c1ccc(F)cc1 (racemic) [Example 63, N-{4-[7-(cyclopropylmethyl)-3-(4-fluorophenyl)-5-methyl-4-oxo-4,5-dihydro-1H-pyrrolo[3,2-c]pyridin-2-yl]pyridin-2-yl}-2-(4-fluorophenyl)propanamide] | 12 nM | 8 nM | – | – |
| Cn1cc(CC(F)(F)F)c2[nH]c(-c3ccnc(NC(=O)C(CC(F)F)c4ccc(F)cc4)c3)c(-c3ccccc3)c2c1=O (racemic) [Example 18, 4,4-difluoro-2-(4-fluorophenyl)-N-{4-[5-methyl-4-oxo-3-phenyl-7-(2,2,2-trifluoroethyl)-4,5-dihydro-1H-pyrrolo[3,2-c]pyridin-2-yl]pyridin-2-yl}butanamide] | 5.9 nM | 3.1 nM | – | – |
| Cc1cn(C)c(=O)c2c(-c3ccc(F)cc3)c(-c3ccnc(NC(=O)C(CC(F)F)c4ccc(F)cc4)c3)[nH]c12 (racemic) [Example 34, 4,4-difluoro-2-(4-fluorophenyl)-N-{4-[3-(4-fluorophenyl)-5,7-dimethyl-4-oxo-4,5-dihydro-1H-pyrrolo[3,2-c]pyridin-2-yl]pyridin-2-yl}butanamide] | 5.8 nM | 5.3 nM | – | – |
| CN1C(=O)c2c([nH]c(-c3ccnc(NC(=O)C(CC(F)F)c4ccc(F)cc4)c3)c2-c2ccccc2)CC12CCC2 (single isomer, unassigned; (+)) [Example 51, (+)-4,4-difluoro-2-(4-fluorophenyl)-N-[4-(5′-methyl-4′-oxo-3′-phenyl-1′,4′,5′,7′-tetrahydrospiro-[cyclobutane-1,6′-pyrrolo[3,2-c]pyridin]-2′-yl)pyridin-2-yl]butanamide] | 1.8 nM | 2.4 nM | – | – |
| CN1CCc2[nH]c(-c3ccnc(NC(=O)Cc4ccc(F)cc4)c3)c(-c3cccnc3)c2C1=O [Example 12, 2-(4-fluorophenyl)-N-{4-[5-methyl-4-oxo-3-(pyridin-3-yl)-4,5,6,7-tetrahydro-1H-pyrrolo[3,2-c]pyridin-2-yl]pyridin-2-yl}acetamide] | 10 nM | 13 nM | – | – |
| Cc1cn(C)c(=O)c2c(-c3ccccc3)c(-c3ccnc(NC(=O)C(C)c4ccc(F)cc4)c3)[nH]c12 (racemic) [Example 38, N-[4-(5,7-dimethyl-4-oxo-3-phenyl-4,5-dihydro-1H-pyrrolo[3,2-c]pyridin-2-yl)pyridin-2-yl]-2-(4-fluorophenyl)propanamide] | 7.8 nM | 7.1 nM | – | – |
| CC1c2[nH]c(-c3ccnc(NC(=O)C(CC(F)F)c4ccc(F)cc4)c3)c(-c3ccccc3)c2C(=O)N(C)C1C (centres unmarked) [Example 41, 4,4-difluoro-2-(4-fluorophenyl)-N-{4-[5,6,7-trimethyl-4-oxo-3-phenyl-4,5,6,7-tetrahydro-1H-pyrrolo[3,2-c]pyridin-2-yl]pyridin-2-yl}butanamide] | 5.7 nM | 6.1 nM | – | – |

From US20230322767A1, “ARYL SUBSTITUTED PYRROLO-PYRIDINONES AND THERAPEUTIC USES THEREOF” (Bayer Aktiengesellschaft, priority 2020, published 2023)
